Test results taken from patent US20210186970A1, “SELECTIVE CALCIUM CHANNEL ANTAGONISTS” (Northwestern University, priority 2011, published 2021).
Read-outs that look alike come from different tables or passages of the source.

Key:
[1] = molecular target: Cav1.2 L-type Ca channels (Oryctolagus cuniculus, UniProt P15381); experiment: FLIPR Fluo-8 calcium assay, Cav1.2 channel inhibition in HEK293 cells
[2] = molecular target: T1, Cav1.3 L-type Ca channels (Rattus norvegicus, UniProt P27732); experiment: FLIPR Fluo-8 calcium assay, Cav1.3 channel inhibition in HEK293 cells; format: cell-based; conditions: for IC50: FLIPR, HEK293, value (±SD)
T1 construct: expressed in transfected cells; host or cells: HEK293
T1 sequence (P27732 whole entry): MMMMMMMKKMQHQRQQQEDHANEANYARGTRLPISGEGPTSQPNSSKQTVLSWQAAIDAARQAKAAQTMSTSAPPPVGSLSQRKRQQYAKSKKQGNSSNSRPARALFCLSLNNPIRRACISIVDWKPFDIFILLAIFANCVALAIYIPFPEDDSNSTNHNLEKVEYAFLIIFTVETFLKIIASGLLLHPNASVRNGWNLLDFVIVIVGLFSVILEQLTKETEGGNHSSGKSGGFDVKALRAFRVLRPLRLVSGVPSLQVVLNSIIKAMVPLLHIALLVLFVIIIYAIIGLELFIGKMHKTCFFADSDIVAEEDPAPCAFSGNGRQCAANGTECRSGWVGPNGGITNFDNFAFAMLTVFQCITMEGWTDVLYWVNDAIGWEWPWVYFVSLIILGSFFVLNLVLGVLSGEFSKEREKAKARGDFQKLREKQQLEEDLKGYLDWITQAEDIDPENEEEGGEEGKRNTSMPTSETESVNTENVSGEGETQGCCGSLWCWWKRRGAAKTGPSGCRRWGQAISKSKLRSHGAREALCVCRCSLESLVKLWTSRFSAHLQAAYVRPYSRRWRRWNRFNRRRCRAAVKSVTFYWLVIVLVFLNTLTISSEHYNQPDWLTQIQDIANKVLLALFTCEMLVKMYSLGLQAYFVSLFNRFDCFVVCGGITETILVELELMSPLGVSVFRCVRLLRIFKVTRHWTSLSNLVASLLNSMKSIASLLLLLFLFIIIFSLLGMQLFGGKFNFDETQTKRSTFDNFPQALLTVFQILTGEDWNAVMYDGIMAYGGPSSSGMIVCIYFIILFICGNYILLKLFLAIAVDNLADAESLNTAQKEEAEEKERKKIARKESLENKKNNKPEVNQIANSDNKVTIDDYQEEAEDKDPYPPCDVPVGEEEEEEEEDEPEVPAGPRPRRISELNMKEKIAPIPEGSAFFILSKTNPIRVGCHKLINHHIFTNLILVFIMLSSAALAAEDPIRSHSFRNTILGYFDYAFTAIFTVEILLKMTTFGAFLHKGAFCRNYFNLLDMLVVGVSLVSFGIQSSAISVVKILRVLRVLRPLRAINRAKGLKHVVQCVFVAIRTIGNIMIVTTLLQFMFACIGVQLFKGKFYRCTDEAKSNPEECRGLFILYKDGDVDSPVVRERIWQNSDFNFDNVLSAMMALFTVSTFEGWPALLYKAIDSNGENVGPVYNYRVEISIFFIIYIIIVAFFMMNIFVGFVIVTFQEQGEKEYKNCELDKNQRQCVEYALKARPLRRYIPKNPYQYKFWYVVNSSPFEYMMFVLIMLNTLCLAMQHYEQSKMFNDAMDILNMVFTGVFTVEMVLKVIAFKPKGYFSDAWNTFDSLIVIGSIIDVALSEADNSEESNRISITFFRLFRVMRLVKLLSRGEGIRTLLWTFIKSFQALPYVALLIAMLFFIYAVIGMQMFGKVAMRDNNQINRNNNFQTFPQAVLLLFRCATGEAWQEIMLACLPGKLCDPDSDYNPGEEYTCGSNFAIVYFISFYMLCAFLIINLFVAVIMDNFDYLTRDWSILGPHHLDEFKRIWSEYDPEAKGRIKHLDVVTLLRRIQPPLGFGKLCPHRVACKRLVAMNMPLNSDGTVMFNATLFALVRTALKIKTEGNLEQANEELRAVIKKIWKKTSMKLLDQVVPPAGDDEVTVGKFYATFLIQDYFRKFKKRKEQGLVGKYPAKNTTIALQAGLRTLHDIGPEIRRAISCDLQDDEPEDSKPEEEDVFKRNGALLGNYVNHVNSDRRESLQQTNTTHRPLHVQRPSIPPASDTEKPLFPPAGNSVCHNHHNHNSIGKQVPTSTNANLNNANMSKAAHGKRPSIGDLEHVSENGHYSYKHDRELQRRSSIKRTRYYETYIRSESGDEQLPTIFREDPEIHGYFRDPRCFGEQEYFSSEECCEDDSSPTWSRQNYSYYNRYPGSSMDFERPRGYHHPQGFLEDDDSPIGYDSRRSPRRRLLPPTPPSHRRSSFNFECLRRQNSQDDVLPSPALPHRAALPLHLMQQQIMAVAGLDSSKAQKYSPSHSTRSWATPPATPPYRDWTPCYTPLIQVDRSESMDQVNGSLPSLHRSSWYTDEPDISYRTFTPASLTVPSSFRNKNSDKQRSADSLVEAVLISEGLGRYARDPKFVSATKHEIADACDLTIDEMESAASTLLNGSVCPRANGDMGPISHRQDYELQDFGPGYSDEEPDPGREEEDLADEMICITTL
T1 sequence (P54284 whole entry partner): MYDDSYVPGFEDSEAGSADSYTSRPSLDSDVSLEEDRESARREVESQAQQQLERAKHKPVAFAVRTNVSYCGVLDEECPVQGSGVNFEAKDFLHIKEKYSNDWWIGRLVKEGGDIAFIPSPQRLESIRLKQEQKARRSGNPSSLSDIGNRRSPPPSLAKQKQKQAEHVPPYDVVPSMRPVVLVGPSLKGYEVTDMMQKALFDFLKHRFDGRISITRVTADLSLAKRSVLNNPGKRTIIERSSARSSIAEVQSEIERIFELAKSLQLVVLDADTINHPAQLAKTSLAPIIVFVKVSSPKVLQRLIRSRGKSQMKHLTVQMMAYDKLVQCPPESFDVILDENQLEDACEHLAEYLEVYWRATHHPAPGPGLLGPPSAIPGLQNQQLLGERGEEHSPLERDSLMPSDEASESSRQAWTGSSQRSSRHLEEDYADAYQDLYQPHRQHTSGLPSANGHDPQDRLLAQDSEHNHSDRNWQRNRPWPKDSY
T1 sequence (P54289 25-956 partner limits assumed): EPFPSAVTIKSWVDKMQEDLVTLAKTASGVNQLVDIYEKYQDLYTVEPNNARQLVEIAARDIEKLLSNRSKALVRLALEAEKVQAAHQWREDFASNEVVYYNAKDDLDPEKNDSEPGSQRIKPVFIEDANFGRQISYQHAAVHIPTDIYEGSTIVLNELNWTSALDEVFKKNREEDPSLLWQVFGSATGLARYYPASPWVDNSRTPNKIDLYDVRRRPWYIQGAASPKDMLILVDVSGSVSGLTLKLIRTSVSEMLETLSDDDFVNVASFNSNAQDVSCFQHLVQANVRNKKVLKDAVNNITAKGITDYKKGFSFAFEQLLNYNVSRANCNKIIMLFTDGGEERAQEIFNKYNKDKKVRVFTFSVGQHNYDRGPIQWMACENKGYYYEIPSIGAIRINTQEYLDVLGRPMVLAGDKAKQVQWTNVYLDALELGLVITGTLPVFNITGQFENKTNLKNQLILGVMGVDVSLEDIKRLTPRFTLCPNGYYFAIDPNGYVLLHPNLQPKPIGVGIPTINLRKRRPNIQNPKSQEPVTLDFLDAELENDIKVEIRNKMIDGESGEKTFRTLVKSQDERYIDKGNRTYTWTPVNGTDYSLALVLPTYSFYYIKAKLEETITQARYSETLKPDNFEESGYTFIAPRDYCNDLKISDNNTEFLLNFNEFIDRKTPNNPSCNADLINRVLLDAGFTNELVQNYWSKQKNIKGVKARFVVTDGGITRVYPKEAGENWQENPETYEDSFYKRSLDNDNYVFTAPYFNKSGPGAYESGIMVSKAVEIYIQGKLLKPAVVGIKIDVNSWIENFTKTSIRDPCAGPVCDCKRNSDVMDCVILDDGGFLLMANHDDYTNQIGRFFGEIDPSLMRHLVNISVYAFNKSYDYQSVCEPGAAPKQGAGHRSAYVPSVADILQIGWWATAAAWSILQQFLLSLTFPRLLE
T1 sequence (P54289 957-1103 partner limits assumed): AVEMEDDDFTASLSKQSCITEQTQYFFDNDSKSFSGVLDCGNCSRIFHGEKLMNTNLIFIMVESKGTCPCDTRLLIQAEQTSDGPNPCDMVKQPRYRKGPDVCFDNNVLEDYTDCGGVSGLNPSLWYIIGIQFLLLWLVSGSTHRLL

[3] = IC50 (μM) CaV1.2, first library, FLIPR, HEK293, value (±SD)
[4] = IC50 (μM) CaV1.3, first library
[5] = first library, ratio of IC50 Cav1.2 to Cav1.3
[6] = first library, read-out: IC50 (μM) CaV1.3
[7] = IC50 (μM) Cav1.2, second library, FLIPR, HEK293, value (±SD)
[8] = IC50 (μM) Cav1.3, second library
[9] = second library, ratio of IC50 Cav1.2 to Cav1.3
[10] = IC50 (μM) Cav1.2, third library, FLIPR, HEK293, value (±SD)
[11] = IC50 (μM) Cav1.3, third library
[12] = third library, ratio of IC50 Cav1.2 to Cav1.3

SMILES: O=C1CC(=O)N(CCc2cccc([N+](=O)[O-])c2)C(=O)N1CCCCc1ccccc1 [Compound 47]
- IC50 [1, 3]: 3 µM
- IC50 [2, 4]: 3 µM
- Selectivity [2, 5]: 1.0

SMILES: O=C1CC(=O)N(Cc2ccc(Cl)cc2)C(=O)N1CCCCc1ccccc1 [Compound 48]
- IC50 [1, 3]: 7.7 µM
- IC50 [2, 4]: 2.1 µM
- Selectivity [2, 5]: 3.7

SMILES: O=C1CC(=O)N(CCCc2ccccc2)C(=O)N1CCCCc1ccccc1 [Compound 49]
- IC50 [1, 3]: 2.6 µM
- IC50 [2, 6]: 1.3 µM
- Selectivity [2, 5]: 2.0

SMILES: O=C1CC(=O)N(C2CCCc3ccccc32)C(=O)N1CCCCc1ccccc1 (centres unmarked) [Compound 50]
- IC50 [1, 3]: 34.1 µM
- IC50 [2, 4]: 36.5 µM
- Selectivity [2, 5]: 0.9

SMILES: O=C1CC(=O)N(C2Cc3ccccc3C2)C(=O)N1CCCCc1ccccc1 [Compound 51]
- IC50 [1, 3]: 4.9 µM
- IC50 [2, 6]: 3.3 µM
- Selectivity [2, 5]: 1.5

SMILES: O=C1CC(=O)N(C2CCc3ccccc32)C(=O)N1CCCCc1ccccc1 (centres unmarked) [Compound 52]
- IC50 [1, 3]: 5.7 µM
- IC50 [2, 4]: 5.3 µM
- Selectivity [2, 5]: 1.1

SMILES: O=C1CC(=O)N(CCc2ccc3ccccc3c2)C(=O)N1CCCCc1ccccc1 [Compound 53]
- IC50 [1, 3]: 2.5 µM
- IC50 [2, 4]: 1.9 µM
- Selectivity [2, 5]: 1.3

SMILES: O=C1CC(=O)N(CCc2ccc(Cl)c(Cl)c2)C(=O)N1CCCc1ccccc1 [Compound 54]
- IC50 [1, 3]: 6.9 µM
- IC50 [2, 4]: 4.3 µM
- Selectivity [2, 5]: 1.6

SMILES: O=C1CC(=O)N(CCc2ccc(F)cc2)C(=O)N1CCCc1ccccc1 [Compound 55]
- IC50 [1, 3]: 2.2 µM
- IC50 [2, 6]: 1.3 µM
- Selectivity [2, 5]: 1.7

SMILES: O=C1CC(=O)N(CCc2cccc(F)c2)C(=O)N1CCCc1ccccc1 [Compound 56]
- IC50 [1, 3]: 2.5 µM
- IC50 [2, 4]: 1.6 µM
- Selectivity [2, 5]: 1.5

SMILES: O=C1CC(=O)N(Cc2cccc([N+](=O)[O-])c2)C(=O)N1CCCc1ccccc1 [Compound 57]
- IC50 [1, 3]: 13 µM
- IC50 [2, 4]: 16.5 µM
- Selectivity [2, 5]: 0.8

SMILES: O=C1CC(=O)N(CCc2cccc([N+](=O)[O-])c2)C(=O)N1CCCc1ccccc1 [Compound 58]
- IC50 [1, 3]: 9.5 µM
- IC50 [2, 4]: 10.4 µM
- Selectivity [2, 5]: 0.9

SMILES: O=C1CC(=O)N(Cc2ccc(Cl)cc2)C(=O)N1CCCc1ccccc1 [Compound 59]
- IC50 [1, 3]: 26 µM
- IC50 [2, 4]: 21.9 µM
- Selectivity [2, 5]: 1.2

SMILES: CCCCCCCCN1C(=O)CC(=O)N(CCCc2ccccc2)C1=O [Compound 60]
- IC50 [1, 3]: 2.6 µM
- IC50 [2, 6]: 1.1 µM
- Selectivity [2, 5]: 2.5

SMILES: O=C1CC(=O)N(CCc2ccc3ccccc3c2)C(=O)N1CCCc1ccccc1 [Compound 61]
- IC50 [1, 3]: 1.2 µM
- IC50 [2, 4]: 1 µM
- Selectivity [2, 5]: 1.3

SMILES: O=C1CC(=O)N(CCc2ccc3ccccc3c2)C(=O)N1CCc1ccc2ccccc2c1 [Compound 62]
- IC50 [1, 3]: 1.8 µM
- IC50 [2, 4]: 2.9 µM
- Selectivity [2, 5]: 0.6

SMILES: O=C1CC(=O)N(CCc2ccc3ccccc3c2)C(=O)N1CCc1ccc(Cl)c(Cl)c1 [Compound 63]
- IC50 [1, 3]: 3.8 µM
- IC50 [2, 4]: 4 µM
- Selectivity [2, 5]: 1.0

SMILES: O=C1CC(=O)N(CCc2ccc3ccccc3c2)C(=O)N1CCc1ccc(F)cc1 [Compound 64]
- IC50 [1, 3]: 3.8 µM
- IC50 [2, 4]: 1.8 µM
- Selectivity [2, 5]: 2.1

SMILES: O=C1CC(=O)N(Cc2cccc([N+](=O)[O-])c2)C(=O)N1CCc1ccc2ccccc2c1 [Compound 65]
- IC50 [1, 3]: 5 µM
- IC50 [2, 4]: 4.8 µM
- Selectivity [2, 5]: 1.0

SMILES: O=C1CC(=O)N(Cc2ccc(Cl)cc2)C(=O)N1CCc1ccc2ccccc2c1 [Compound 66]
- IC50 [1]: 2.4 µM
- IC50 [2, 4]: 1.7 µM

SMILES: CCCCCCCCN1C(=O)CC(=O)N(CCc2ccc3ccccc3c2)C1=O [Compound 67]
- IC50 [1, 3]: 8.9 µM
- IC50 [2, 6]: 1.9 µM
- Selectivity [2, 5]: 4.8

SMILES: O=C1CC(=O)N(C2CCCCC2)C(=O)N1CCc1ccc(F)cc1 [Compound 68]
- IC50 [1, 3]: 166 µM
- IC50 [2, 4]: 9.4 µM
- Selectivity [2, 5]: 17.7

SMILES: Cc1ccc(CCN2C(=O)CC(=O)N(C3CCCCC3)C2=O)cc1 [Compound 74]
- IC50 [1, 7]: 6.1 µM
- IC50 [2, 8]: 1.8 µM
- Selectivity [2, 9]: 3.4

SMILES: O=C1CC(=O)N(C2CCCCC2)C(=O)N1CCc1ccccc1Cl [Compound 76]
- IC50 [1, 7]: 44.5 µM
- IC50 [2, 8]: 5.2 µM
- Selectivity [2, 9]: 7.7

SMILES: O=C1CC(=O)N(C2CCCCC2)C(=O)N1CCc1ccc(Br)cc1 [Compound 77]
- IC50 [1, 7]: 21.3 µM
- IC50 [2, 8]: 0.8 µM
- Selectivity [2, 9]: 26.4

SMILES: N#Cc1ccc(CCN2C(=O)CC(=O)N(C3CCCCC3)C2=O)cc1 [Compound 78]
- IC50 [1, 7]: 56 µM
- IC50 [2, 8]: 49.8 µM
- Selectivity [2, 9]: 1.1

SMILES: N#Cc1cccc(CCN2C(=O)CC(=O)N(C3CCCCC3)C2=O)c1 [Compound 79]
- IC50 [1, 7]: 36.5 µM
- IC50 [2, 8]: 10.5 µM
- Selectivity [2, 9]: 3.5

SMILES: COc1ccc(CN2C(=O)CC(=O)N(C3CCCCC3)C2=O)cc1 [Compound 81]
- IC50 [1, 7]: 67.8 µM
- Selectivity [2]: 2.1
- IC50 [2, 8]: 32.2 µM

SMILES: O=C1CC(=O)N(C2CCCCC2)C(=O)N1Cc1ccc(Cl)cc1 [Compound 82]
- IC50 [1, 7]: 119 µM
- Selectivity [2]: 14.7
- IC50 [2, 8]: 8.1 µM

SMILES: O=C1CC(=O)N(C2CCCCC2)C(=O)N1Cc1cccc([N+](=O)[O-])c1 [Compound 83]
- IC50 [1, 7]: 59.5 µM
- IC50 [2, 8]: 48.2 µM
- Selectivity [2, 9]: 1.2

SMILES: O=C1CC(=O)N(C2CCCCC2)C(=O)N1CCCc1ccccc1 [Compound 84]
- IC50 [1, 7]: 30.5 µM
- IC50 [2, 8]: 6.3 µM
- Selectivity [2, 9]: 4.9

SMILES: O=C1CC(=O)N(C2CCc3ccccc32)C(=O)N1C1CCCCC1 (centres unmarked) [Compound 85]
- IC50 [1, 7]: 19.2 µM
- IC50 [2, 8]: 16.4 µM
- Selectivity [2, 9]: 1.2

SMILES: O=C1CC(=O)N(C2CCCCC2)C(=O)N1CCOc1ccccc1 [Compound 88]
- IC50 [1, 7]: 11.8 µM
- IC50 [2, 8]: 9.5 µM
- Selectivity [2, 9]: 1.2

SMILES: O=C(O)c1cccc(CCN2C(=O)CC(=O)N(C3CCCCC3)C2=O)c1 [Compound 89]
- IC50 [1, 7]: 64.7 µM
- IC50 [2, 8]: 73 µM
- Selectivity [2, 9]: 0.9

SMILES: O=C1CC(=O)N(C2CCCCCC2)C(=O)N1CCc1cccc(C(F)(F)F)c1 [Compound 90]
- IC50 [1, 10]: 5.7 µM
- IC50 [2, 11]: 1.7 µM
- Selectivity [2, 12]: 3.4

SMILES: O=C1CC(=O)N(C2CCCCCC2)C(=O)N1CCc1cccc(Cl)c1 [Compound 91]
- IC50 [1, 10]: 45.6 µM
- IC50 [2, 11]: 2.5 µM
- Selectivity [2, 12]: 18.5

SMILES: O=C1CC(=O)N(C2CCCCCC2)C(=O)N1CCc1ccc(Cl)cc1 [Compound 92]
- IC50 [1, 10]: 32.8 µM
- IC50 [2, 11]: 2.2 µM
- Selectivity [2, 12]: 15.0

SMILES: Cc1cccc(CCN2C(=O)CC(=O)N(C3CCCCCC3)C2=O)c1 [Compound 93]
- IC50 [1, 10]: 30.7 µM
- IC50 [2, 11]: 13.2 µM
- Selectivity [2, 12]: 2.3

SMILES: Cc1ccc(CCN2C(=O)CC(=O)N(C3CCCCCC3)C2=O)cc1 [Compound 94]
- IC50 [1, 10]: 14.9 µM
- IC50 [2, 11]: 0.9 µM
- Selectivity [2, 12]: 16.0

SMILES: Cc1cccc(CCN2C(=O)CC(=O)N(C3CCCC3)C2=O)c1 [Compound 97]
- IC50 [1, 10]: 52.1 µM
- IC50 [2, 11]: 1.1 µM
- Selectivity [2, 12]: 49.1

SMILES: Cc1ccc(CCN2C(=O)CC(=O)N(C3CCCC3)C2=O)cc1 [Compound 98]
- IC50 [1, 10]: 35.8 µM
- IC50 [2, 11]: 1.7 µM
- Selectivity [2, 12]: 20.7

SMILES: O=C1CC(=O)N(C2CCC2)C(=O)N1CCc1cccc(Cl)c1 [Compound 99]
- IC50 [1]: 14.6 µM
- IC50 [2, 11]: 2.7 µM
- Selectivity [2, 12]: 5.4

SMILES: O=C1CC(=O)N(C2CCC2)C(=O)N1CCc1ccc(Cl)cc1 [Compound 100]
- IC50 [1, 10]: 4.9 µM
- IC50 ([2]; third library, read-out: IC50 (μM) Cav1.3): 1.8 µM
- Selectivity [2, 12]: 2.8

SMILES: O=C1CC(=O)N(C2CC2)C(=O)N1CCc1cccc(Cl)c1 [Compound 101]
- IC50 [1]: 5.4 µM
- IC50 [2, 11]: 26.8 µM
- Selectivity [2, 12]: 0.2

SMILES: O=C1CC(=O)N(C2CC2)C(=O)N1CCc1ccc(Cl)cc1 [Compound 102]
- IC50 [1]: 5 µM
- IC50 [2, 11]: 19.6 µM
- Selectivity [2, 12]: 0.3
